Measured values reported in the NIST ThermoML archive (doi:10.1021/je100148h).

Test: xn = mol fraction of the nth substance listed
Conditions: Fluid (supercritical or subcritical phases), Burnett expansion method

CCC [propane] + O=C=O
Conditions | mass density [kg/m3]
360.01 K, 5054 kPa, x2 = 0.8017 | 90.4354
360.01 K, 6218.2 kPa, x2 = 0.5158 | 141.203
360.02 K, 178.29 kPa, x2 = 0.8017 | 2.6378
360.02 K, 245.35 kPa, x2 = 0.8017 | 3.6378
360.02 K, 337.31 kPa, x2 = 0.8017 | 5.0167
360.02 K, 463.19 kPa, x2 = 0.8017 | 6.9183
360.02 K, 634.97 kPa, x2 = 0.8017 | 9.5406
360.02 K, 868.69 kPa, x2 = 0.8017 | 13.1566
360.02 K, 3863.5 kPa, x2 = 0.8017 | 65.5911
360.02 K, 6495 kPa, x2 = 0.8017 | 124.684
370 K, 1659.1 kPa, x2 = 0.8017 | 25.0073
370.01 K, 476.31 kPa, x2 = 0.8017 | 6.9151
370.01 K, 653.23 kPa, x2 = 0.8017 | 9.5361
370.01 K, 894.13 kPa, x2 = 0.8017 | 13.1504
370.01 K, 1220.3 kPa, x2 = 0.8017 | 18.1344
370.01 K, 2244.1 kPa, x2 = 0.8017 | 34.4826
370.01 K, 3013.9 kPa, x2 = 0.8017 | 47.5475
370.01 K, 5267 kPa, x2 = 0.8017 | 90.3909
370.02 K, 205.87 kPa, x2 = 0.5158 | 2.9726
370.02 K, 283.04 kPa, x2 = 0.5158 | 4.1011
370.02 K, 346.79 kPa, x2 = 0.8017 | 5.0143
370.02 K, 388.65 kPa, x2 = 0.5158 | 5.6577
370.02 K, 992.19 kPa, x2 = 0.5158 | 14.8545
370.02 K, 1345.8 kPa, x2 = 0.5158 | 20.4921
370.02 K, 1815.3 kPa, x2 = 0.5158 | 28.2684
370.02 K, 2426.9 kPa, x2 = 0.5158 | 38.9941
370.02 K, 3206 kPa, x2 = 0.5158 | 53.7882
370.02 K, 4009.4 kPa, x2 = 0.8017 | 65.5581
370.02 K, 4171 kPa, x2 = 0.5158 | 74.1924
370.02 K, 5317.2 kPa, x2 = 0.5158 | 102.331
370.02 K, 6617 kPa, x2 = 0.5158 | 141.135
370.02 K, 6810.4 kPa, x2 = 0.8017 | 124.62
370.03 K, 532.61 kPa, x2 = 0.5158 | 7.8051
370.03 K, 728.17 kPa, x2 = 0.5158 | 10.7675
380.02 K, 188.21 kPa, x2 = 0.8017 | 2.6354
380.02 K, 259.02 kPa, x2 = 0.8017 | 3.6346
380.02 K, 399.41 kPa, x2 = 0.5158 | 5.6555
380.02 K, 671.46 kPa, x2 = 0.8017 | 9.5319
380.02 K, 919.55 kPa, x2 = 0.8017 | 13.1448
380.02 K, 1255.9 kPa, x2 = 0.8017 | 18.1264
380.02 K, 1386.9 kPa, x2 = 0.5158 | 20.4838
380.02 K, 1709 kPa, x2 = 0.8017 | 24.9958
380.02 K, 1873.6 kPa, x2 = 0.5158 | 28.257
380.02 K, 3114.5 kPa, x2 = 0.8017 | 47.5261
380.02 K, 3326.5 kPa, x2 = 0.5158 | 53.7656
380.02 K, 4154.3 kPa, x2 = 0.8017 | 65.5297
380.02 K, 4347.6 kPa, x2 = 0.5158 | 74.1614
380.02 K, 5478.5 kPa, x2 = 0.8017 | 90.3475
380.02 K, 5579.3 kPa, x2 = 0.5158 | 102.287
380.02 K, 7122.7 kPa, x2 = 0.8017 | 124.564
380.03 K, 356.25 kPa, x2 = 0.8017 | 5.0122
380.03 K, 489.43 kPa, x2 = 0.8017 | 6.9121
380.03 K, 547.58 kPa, x2 = 0.5158 | 7.802
380.03 K, 749.01 kPa, x2 = 0.5158 | 10.7633
380.03 K, 1021.4 kPa, x2 = 0.5158 | 14.8485
380.03 K, 2314.7 kPa, x2 = 0.8017 | 34.4669
